Reference: the supplement of paper PMC10307832

Legend:
[1] = compound: CC1(COc2ccc3c(c2)ncn3-c2ccc3cccc(N4CCC(N)CC4)c3n2)COC1 [Crenolanib] + NC(=O)Nc1cc(-c2cccc(F)c2)sc1C(=O)N[C@H]1CCCNC1 [AZD7762] (partner 0.2 µM); assay: relative viability (nuclei count vs DMSO), 5 days (fraction); higher = more cells survive
Summary of the method: (§1)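 Relative viability was taken as the ratio of nuclei in treated wells to nuclei in vehicle wells. Lung cancer cell lines in 1536-well plates received compounds by pin tool one day after seeding, either one drug alone or a fixed anchor-drug dose plus five library-drug doses (not always all listed) in √10 steps. Nuclei were counted on 4× images after 5 days of treatment, and values are medians of duplicate plates.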

[2] = compound: CC1(COc2ccc3c(c2)ncn3-c2ccc3cccc(N4CCC(N)CC4)c3n2)COC1 [Crenolanib] + CC(=O)Nc1cccc(-n2c(=O)n(C3CC3)c(=O)c3c(Nc4ccc(I)cc4F)n(C)c(=O)c(C)c32)c1 [Trametinib] (partner 0.02 µM); assay: as above
Summary of the method: as §1

Cell Line | relative viability ([1]; first compound 0.01 µM) | relative viability ([1]; first compound 0.03162 µM) | relative viability ([1]; first compound 0.1 µM) | relative viability ([1]; first compound 0.3162 µM) | relative viability ([1]; first compound 1 µM) | relative viability ([2]; first compound 0.01 µM) | relative viability ([2]; first compound 0.03162 µM) | relative viability ([2]; first compound 0.1 µM) | relative viability ([2]; first compound 0.3162 µM) | relative viability ([2]; first compound 1 µM)
NCI-H650 | 1.06 | 0.975 | 1.01 | 0.864 | 0.936 | 1.01 | 1.01 | 0.976 | 1.05 | 0.992
NCI-H661 |  |  |  |  |  | 0.57 | 0.55 | 0.528 | 0.603 | 0.494
NCI-H727 | 0.702 | 0.445 | 0.546 | 0.671 | 0.587 | 0.437 | 0.387 | 0.359 | 0.382 | 0.447
NCI-H838 | 0.883 | 0.977 | 0.886 | 0.924 | 0.901 | 0.564 | 0.501 | 0.489 | 0.53 | 0.439
NCI-H1355 | 0.729 | 0.89 | 0.705 | 0.732 | 0.653 | 0.488 | 0.381 | 0.405 | 0.547 | 0.37
NCI-H1395 | 0.374 | 0.392 | 0.412 | 0.457 | 0.473 | 1.05 | 1.03 | 0.976 | 1 | 1.14
NCI-H1437 | 1.15 | 1.18 | 1.07 | 1.19 | 1.14 | 0.677 | 0.572 | 0.487 | 0.521 | 0.602
NCI-H1648 | 0.666 |  | 0.673 | 0.673 | 0.745 | 0.541 |  | 0.469 | 0.457 | 0.514
NCI-H1650 |  |  |  |  |  | 0.715 | 0.534 | 0.521 | 0.747 | 0.575
NCI-H1651 | 0.49 | 0.399 | 0.434 | 0.472 | 0.558 | 0.864 | 0.835 | 0.783 | 0.825 | 0.847
NCI-H1666 | 0.928 | 0.831 | 0.761 | 0.905 | 0.889 | 0.887 | 0.824 | 0.857 | 0.985 | 0.83
NCI-H1703 | 0.143 | 0.131 | 0.114 | 0.116 | 0.113 |  |  |  |  | 
NCI-H1734 | 0.569 | 0.61 | 0.567 | 0.756 | 0.659 | 0.768 | 0.725 | 0.682 | 0.806 | 0.765
NCI-H1755 | 0.423 | 0.468 | 0.362 | 0.529 | 0.484 | 0.754 | 0.707 | 0.734 | 0.885 | 0.75
NCI-H1792 | 0.701 | 0.686 | 0.656 | 0.834 | 0.754 | 0.422 | 0.545 | 0.399 | 0.485 | 0.347
NCI-H1793 | 0.549 | 0.794 | 0.538 | 0.366 | 0.645 | 0.349 | 0.333 | 0.363 | 0.472 | 0.458
NCI-H1915 | 0.745 | 0.74 | 0.688 | 0.793 | 0.585 | 0.29 | 0.324 | 0.289 | 0.304 | 0.275
NCI-H1944 | 0.551 | 0.587 | 0.534 | 0.605 | 0.497 | 0.426 | 0.414 | 0.375 | 0.454 | 0.406
NCI-H1975 | 0.741 | 0.732 | 0.629 | 0.639 | 0.712 | 0.344 | 0.316 | 0.313 | 0.304 | 0.359

Cell Line | relative viability ([1]; first compound 0.01 µM) | relative viability ([1]; first compound 0.03162 µM) | relative viability ([1]; first compound 0.1 µM) | relative viability ([1]; first compound 0.3162 µM) | relative viability ([1]; first compound 1 µM) | relative viability ([2]; first compound 0.01 µM) | relative viability ([2]; first compound 0.03162 µM) | relative viability ([2]; first compound 0.1 µM) | relative viability ([2]; first compound 0.3162 µM) | relative viability ([2]; first compound 1 µM)
NCI-H1993 | 0.843 | 0.802 | 0.889 | 0.974 | 0.688 | 0.509 | 0.512 | 0.56 | 0.505 | 0.501
NCI-H2009 |  |  |  |  |  | 0.325 | 0.296 | 0.308 | 0.223 | 0.235
NCI-H2023 |  |  |  |  |  | 0.549 | 0.556 | 0.53 | 0.594 | 0.494
NCI-H2085 |  | 0.983 | 0.997 | 0.972 | 1 |  | 0.571 | 0.549 | 0.51 | 0.554
NCI-H2087 | 1.33 | 1.18 | 1.39 | 1.6 | 1.34 | 0.234 | 0.227 | 0.207 | 0.207 | 0.193
NCI-H2126 | 1.07 | 1.05 | 0.927 | 1.05 | 0.973 | 0.596 | 0.578 | 0.564 | 0.608 | 0.62
NCI-H2170 | 0.941 | 0.852 | 0.897 | 0.934 | 0.852 | 0.945 | 0.93 | 0.928 | 0.9 | 0.927
NCI-H2228 |  |  |  |  |  | 0.442 | 0.544 | 0.342 | 0.551 | 0.5
NCI-H2342 | 0.607 | 0.475 | 0.475 | 0.532 | 0.484 | 0.502 | 0.822 | 0.935 | 0.887 | 0.904
NCI-H2347 | 0.815 | 0.772 | 0.678 | 0.818 | 0.85 | 0.283 | 0.286 | 0.282 | 0.255 | 0.293
NCI-H2405 | 0.801 |  | 0.554 | 0.773 | 0.646 | 0.698 |  | 0.483 | 0.621 | 0.57
NCI-H3122 | 1.02 | 0.958 | 1.02 | 1.04 | 0.996 | 0.233 | 0.21 | 0.224 | 0.23 | 0.318
PC-3 [JPC-3] | 0.761 |  | 0.832 | 0.78 | 0.752 | 0.758 |  | 0.632 | 0.623 | 0.585
PC-14 | 0.39 | 0.305 | 0.36 | 0.281 | 0.328 | 0.91 | 0.619 | 0.679 | 0.716 | 0.647
RERF-LC-KJ | 1.19 | 0.739 | 0.896 | 0.894 | 1.04 | 0.882 | 0.855 | 0.896 | 0.901 | 0.926
SK-LU-1 |  |  |  |  |  | 0.465 | 0.517 | 0.351 | 0.491 | 0.512
SK-MES-1 |  |  |  |  |  | 0.583 | 0.549 | 0.55 | 0.548 | 0.487
SW 900 | 0.735 |  | 0.756 | 0.858 | 0.522 | 0.797 |  | 0.75 | 0.784 | 1.18
SW 1573 |  |  |  |  |  | 0.661 | 0.607 | 0.55 | 0.726 | 0.579
